± gives the expanded uncertainty stated by the source.
Settings: DTA; for Triple point temperature: Crystal 2; for Normal melting temperature: Crystal

| SMILES | Triple point temperature [K] | Normal melting temperature [°C] |
| --- | --- | --- |
| O=S(=O)([N-]S(=O)(=O)C(F)(F)C(F)(F)F)C(F)(F)C(F)(F)F.[Na+] [sodium bis(pentafluoroethylsulfonyl)amide] | 454 ± 2 | 266 ± 2 |
| O=S(=O)([N-]S(=O)(=O)C(F)(F)C(F)(F)F)C(F)(F)C(F)(F)F.[Rb+] [rubidium bis((perfluoroethyl)sulfonyl)amide] | 419 ± 2 | 266 ± 2 |
| O=S(=O)([N-]S(=O)(=O)C(F)(F)C(F)(F)F)C(F)(F)C(F)(F)F.[Cs+] [cesium bis((perfluoroethyl)sulfonyl)amide] | 369 ± 2 | 253 ± 2 |
| O=S(=O)([N-]S(=O)(=O)C(F)(F)C(F)(F)F)C(F)(F)C(F)(F)F.[K+] [potassium bis(pentafluoroethylsulfonyl) amide] | 427 ± 2 | 273 ± 2 |
| O=S(=O)([N-]S(=O)(=O)C(F)(F)C(F)(F)F)C(F)(F)C(F)(F)F.[Li+] [lithium bis(pentafluoroethylsulfonyl)amide] | 485 ± 2 | 328 ± 2 |

Reference: the NIST ThermoML archive (doi:10.1021/je900902z)
